Test results as given in patent publication US12016880B2, “Halogen treatment of heart attack and ischemic injury” (Fred Hutchinson Cancer Center, priority 2014, dated 2024).

How the values were obtained:
[1] = Oxidation of selenide in water or glutathione solution (visual darkening); format: physicochemical; settings: 50 mM selenide in 150 mM GSH vs in water, 8 minutes immediately following preparation
Protocol: The photographs show samples of 50 mM selenide in either water (FIG. 5A) or 150 mM GSH (FIG. 5B) over the eight minutes immediately following preparation.

[2] = test system: peripheral blood mononuclear cells (PBMC); assay: Mixed lymphocyte culture, tritiated thymidine incorporation; format: cell-based; settings: 5 days culture, 18 hours pulse
Protocol: In particular embodiments, immunosuppression induced by halogen or chalcogenide compounds is assessed by measuring T cell proliferation, e.g., in response to activated antigen presenting cells. Essentially a mixed lymphocyte reaction, this assay exploits that fact that T cell exposure to presented antigens result in T cell activation and proliferation, as well as supportive increases in DNA synthesis. […] Irradiation results in the presentation of numerous antigens to antigen presenting cells, thus the irradiated cells serve as potent activators of T cells. By mixing the irradiated cells with the non-irradiated cells, strong T cell proliferation will occur. This proliferation can be measured using any proliferation assay, as would be commonly known to the skilled artisan. In one embodiment, proliferation is assessed by measuring DNA synthesis. Mixed PBMC were cultured in the presence or absence of halogen or chalcogenide compounds for 5 days, and then pulsed with tritiated thymidine for 18 hours to label newly synthesized DNA. The degree of labeling is directly correlated with the degree of T cell activation, thus low levels of labeling correlate with immunosuppression.
PBMC were either irradiated with 3500 rads (Ax and Bx) or not (A and B). […] Cells were lysed, the lysate filtered to trap the DNA on the filter and the filters counted in a scintillation counter. […]

hypoxic injuries = settings: mice and rats; PCT Publication No. WO2005/041655; cited from earlier work
[3] = test system: mouse model of heart attack; assay: Mouse LAD ligation ischemia/reperfusion, NaI i.v. before reperfusion, infarct size by morphometry; format: in vivo
Protocol: In order to examine the effect of NaI on myocardial infarct size in a mouse model of heart attack, open chest ligation of the left descending coronary artery (LAD ligation) was performed in mice. At 55 minutes post initiation of ischemia, either vehicle (saline) or test agent (NaI) was injected into the femoral vein of each mouse. The heart muscle was reperfused by releasing the ligature at 60 minutes post initiation of ischemia. After 2 hours of reperfusion, infarct size was measured by morphometry (FIG. 1). Five groups of mice were utilized in this study, including a saline vehicle group (n=3) and […] test groups that received 0.25 mg/kg (n=4), 0.5 mg/kg (n=5), 1 mg/kg (n=5), or 2 mg/kg (n=6) of NaI. To be certain that all animals in the study were treated in a similar way, the area at risk (AAR) as a proportion of the left ventricle was determined (FIG. 1). Area at risk (AAR) and infarct size (Inf) were measured using the specific dyes TTC and Evans blue. Processed images were generated in an unbiased way by setting constant thresholds and allowing Photoshop® to generate the images that were quantitated to generate the data presented in FIG. 1.
An additional test was performed under the same conditions but using an expanded range of concentration of NaI.

[4] = test system: mouse model of heart attack; assay: Mouse LAD ligation, NaI i.v. pretreatment before ischemia, infarct size by morphometry; format: in vivo
Protocol: To determine whether pretreatment with NaI prior to heart attack improves heart attack outcome, open chest ligation experiments were performed in mice where either vehicle (saline) or test agent (NaI) was injected into the femoral vein of each mouse either 5 minutes or 48 hours before initiation of ischemia. Open chest ligation of the left descending coronary artery (LAD ligation) was then performed, and the heart muscle was reperfused by releasing the ligature at 60 minutes post initiation of ischemia. After 2 hours of reperfusion, infarct size was measured by morphometry as described above (FIG. 3). Three groups of mice were utilized in this study, including a saline vehicle group (n=1) and two test groups that received 1 mg/kg NaI 5 minutes before LAD ligation (n=4) or 1 mg/kg NaI 48 hours before LAD ligation (n=1).

[5] = test system: mouse model of heart attack; assay: Transthoracic echocardiography of left ventricle after myocardial ischemia and reperfusion; format: in vivo; settings: FIG. 4; single intravenous administration two days prior to ligation-induced ischemia
Protocol: For each of the sets of bars for Ejection Fraction and Fractional Shortening, the bars from left to right correspond to the bars from top to bottom shown in the legend.
In vivo transthoracic echocardiography of the left ventricle (LV) using a 30-MHz RMV scanhead interfaced with a Vevo 770 (Visualsonics) was performed, and two-dimensional echocardiography images were obtained. LV end-diastolic diameter (EDD) and LV end-systolic diameter (ESD) were measured at a day before for a baseline and one and 4 weeks after myocardial ischemia and reperfusion. LV percent fractional shortening (FS) and LV ejection fraction (EF) were calculated.

[6] = test system: mouse model of heart attack; assay: Mouse LAD ligation after two days of drinking water containing NaI, infarct size; format: in vivo
Protocol: In order to examine the effect of pre-treatment with drinking water containing NaI on myocardial infarct size in a mouse model of heart attack, three groups of mice were provided with drinking water containing various concentrations of iodide to achieve dosages of 0.07 mg/kg/day (normal drinking water) for the first group; 0.77 mg/kg/day for the second group; or 7.07 mg/kg/day for the third group, for two days immediately prior to open chest ligation of the left descending coronary artery (LAD ligation) to initiate ischemia. A fourth group of mice was provided with normal drinking water for the two days prior to the initiation of ischemia, but at 55 minutes post initiation of ischemia, either vehicle (saline) or test agent (NaI) was injected into the femoral vein of each of these mice. […] After two hours of reperfusion, infarct size was measured by morphometry (FIG. 1). To be certain that all animals in the study were treated in a similar way, the area at risk (AAR) as a proportion of the left ventricle was determined (FIG. 8). Area at risk (AAR) and infarct size (Inf) were measured using the specific dyes TTC and Evans blue. Processed images were generated in an unbiased way by setting constant thresholds and allowing Photoshop® to generate the images that were quantitated to generate the data presented in FIG. 8.

[7] = test system: mouse model of chronic heart failure; assay: Mouse chronic heart failure after LAD ligation, iodide in drinking water, echocardiography; format: in vivo; settings: drinking water 0.77 mg/kg/day iodide from LAD ligation for 12 weeks vs normal drinking water
Protocol: In order to examine the effect of drinking water containing NaI on chronic heart failure following heart attack in a mouse model, two groups of mice were provided with drinking water lacking iodide or drinking water containing 0.77 mg/kg/day iodide starting immediately following open chest ligation of the left descending coronary artery (LAD ligation) to initiate ischemia, and continuing until the end of the study, which lasted 12 weeks. Prior to the LAD ligation and at 1 week, 2 weeks, 4 weeks, 8 weeks, and 12 weeks following the LAD ligation, mice were examined by echocardiography to determine their left ventricle ejection fraction and their left ventricle fractional shortening.

[8] = test system: rat model of acute myocardial infarction (AMI); assay: Rat acute myocardial infarction (30 min LAD occlusion), plasma cTpnI and infarct size; format: in vivo; settings: 1 mg/kg i.v. bolus, vs placebo
Protocol: Male CD®, IGS Rats (300-450 g) were subjected to 30 minutes of LAD occlusion followed by 24-30 hrs of reperfusion. 200-400 uL of blood was drawn at 4 and 24¬30 hrs post-reperfusion for plasma cTpnI measurements by EIA. After the 24-30 hr blood draw, the LAD was re-occluded, and the heart was excised following i.v. administration of Evans Blue. The hearts were frozen overnight, sectioned, and stained with triphenyl tetrazolium chloride for subsequent blinded infarct analysis.
Rats were anesthetized with a ketamine/xylazine mixture (100 mg/kg and 10 mg/kg, respectively) and maintained under 2-3% isoflurane in 100% medical oxygen after intubation with a 16 gauge angiocatheter sheath (Terumo® Surflo i.v. catheter, 16G×2″, VWR Cat. #TESR-OX1651CA). Animals were ventilated using a Harvard Apparatus Model 683 small animal ventilator equipped with a 5 cc cylinder at a tidal volume of 1.5-2.0 mL/stroke and a respiratory rate of 105 strokes/min. With the rat lying on its right side, animal fur was removed from the surgical area with clippers and then cleaned with alcohol pads. The heart beat was visualized through the chest wall and a dorsoventral incision in the left chest wall was made directly over the beating heart. The underlying fascia was dissected away to reveal the ribs and intercostal muscles. […]

Compound: selenide
- oxidation of selenide (dark oxidized forms) [1]: reduced levels of oxidation at each time point
- tritiated thymidine labeling (DNA synthesis) ([2]; all concentrations): reduced the labeling to control levels

Compound: sulfide
- metabolism and protection from hypoxic injuries (hypoxic injuries): can reduce metabolism and protect mice and rats from hypoxic injuries

Compound: [I-].[Na+] [NaI, sodium iodide]
- infarct size (morphometry) ([3]; NaI 0.25, 0.5, 1 or 2 mg/kg into femoral vein at 55 minutes of ischemia, 2 hours of reperfusion, vs saline group (FIG. 1)): statistically significant decreases in infarct size
- infarct size (morphometry) ([3]; additional test, same conditions, expanded range of concentration of NaI, vs saline group (FIG. 2)): statistically significant decreases in infarct size
- reduction in infarct size in comparison to vehicle alone ([3]; each dosage tested (0.25-2 mg/kg NaI i.v. at 55 minutes of ischemia)): approximately 70%
- infarct size (morphometry) ([4]; 1 mg/kg NaI i.v. 5 minutes or 48 hours before LAD ligation, vs saline group (FIG. 3)): statistically significant decreases in infarct size
- reduction in infarct size in comparison to vehicle alone ([4]; pre-treatment 1 mg/kg NaI 5 minutes or 48 hours before LAD ligation): approximately 70%
- protective effect by echocardiography (LV ejection fraction, fractional shortening) [5]: protective effect of NAI was confirmed by echocardiography
- tritiated thymidine labeling (DNA synthesis) ([2]; highest concentration): reduced the amount of labeling
- infarct size (morphometry) ([6]; drinking water 0.77 or 7.07 mg/kg/day for two days prior to LAD ligation vs normal water (0.07 mg/kg/day)): statistically significant decreases in infarct size
- decrease in infarct size compared with iodide i.v. at the time of reperfusion ([6]; drinking water pre-treatment for two days): somewhat less or comparable
- left ventricle ejection fraction [7]: statistically significant increases
- left ventricle fractional shortening [7]: statistically significant increases
- plasma troponin levels (cTpnI) ([8]; 4 and 24 hr): consistently lower
- infarct size ([8]; 24 hrs): smaller
